Assay results reported in patent publication US8586617B2, “Aminomethyl-4-imidazoles” (Hoffmann-La Roche Inc., priority 2006, dated 2013).

target: TAAR1 (Mus musculus (Mouse), UniProt Q923Y8); assay: TAAR1 radioligand binding assay ([3H]-rac-2-(1,2,3,4-tetrahydro-1-naphthyl)-2-imidazoline, membranes of stably transfected HEK293 cells); conditions: read-out: Ki (μM) mouse; mouse TAAR1; radioligand [3H]-rac-2-(1,2,3,4-tetrahydro-1-naphthyl)-2-imidazoline at 60 nM; 4° C., 30 minutes
Sequence (Q923Y8 whole entry): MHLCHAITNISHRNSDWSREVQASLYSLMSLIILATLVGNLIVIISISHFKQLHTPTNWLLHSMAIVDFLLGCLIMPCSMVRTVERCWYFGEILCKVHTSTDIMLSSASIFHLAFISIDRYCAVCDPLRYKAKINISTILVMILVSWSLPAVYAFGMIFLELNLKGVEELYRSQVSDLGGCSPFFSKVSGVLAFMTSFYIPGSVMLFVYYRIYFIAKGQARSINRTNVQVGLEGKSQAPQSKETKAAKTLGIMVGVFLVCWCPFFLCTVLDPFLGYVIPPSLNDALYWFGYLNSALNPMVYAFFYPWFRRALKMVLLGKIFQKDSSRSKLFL

SMILES | Ki [µM]
COc1cccc(N(C)Cc2cnc[nH]2)c1 [Example 186, (3H-Imidazol-4-ylmethyl)-(3-methoxy-phenyl)-methyl-amine] | 0.0089
Clc1cccc(N(Cc2ccccc2)Cc2cnc[nH]2)c1 [Example 21, Benzyl-(3-chloro-phenyl)-(1H-imidazol-4-ylmethyl)-amine] | 0.0078
Cc1cccc(N(Cc2cnc[nH]2)C(C)C)c1 [Example 26, (3H-Imidazol-4-ylmethyl)-isopropyl-m-tolyl-amine] | 0.0034
CC(C)N(Cc1cnc[nH]1)c1ccc(OCc2ccccc2)c(Cl)c1 [Example 133, (4-Benzyloxy-3-chloro-phenyl)-(1H-imidazol-4-ylmethyl)-isopropyl-amine] | 0.0077
Fc1cc(NCc2cnc[nH]2)ccc1Br [Example 181, (4-Bromo-3-fluoro-phenyl)-(1H-imidazol-4-ylmethyl)-amine] | 0.0098
CC(C)N(Cc1cnc[nH]1)c1ccc(F)c(F)c1 [Example 77, (3,4-Difluoro-phenyl)-(3H-imidazol-4-ylmethyl)-isopropyl-amine] | 0.0053
CC(C)N(Cc1cnc[nH]1)c1cccc(-c2ccccc2)c1 [Example 142, Biphenyl-3-yl-(3H-imidazol-4-ylmethyl)-isopropyl-amine] | 0.0079
c1ccc(Nc2ccc(NCc3cnc[nH]3)cc2)cc1 [Example 155, N-(1H-Imidazol-4-ylmethyl)-N′-phenyl-benzene-1,4-diamine] | 0.0094
CC(C)N(Cc1cnc[nH]1)c1cccc(Oc2ccccc2)c1 [Example 123, (3H-Imidazol-4-ylmethyl)-isopropyl-(3-phenoxy-phenyl)-amine] | 0.0021
Fc1cc(F)cc(NCc2cnc[nH]2)c1 [Example 277, (3,5-Difluoro-phenyl)-(1H-imidazol-4-ylmethyl)-amine] | 0.006
CN(Cc1cnc[nH]1)c1ccc(F)c(F)c1 [Example 287, (3,4-Difluoro-phenyl)-(1H-imidazol-4-ylmethyl)-methyl-amine] | 0.007
CCN(Cc1cnc[nH]1)c1ccc(OC(F)(F)F)c(Cl)c1 [Example 333, (3-Chloro-4-trifluoromethoxy-phenyl)-ethyl-(1H-imidazol-4-ylmethyl)-amine] | 0.001
CC(C1CC1)N(Cc1cnc[nH]1)c1cccc(Cl)c1 (stereo not drawn) [Example 52, (3-Chloro-phenyl)-(1-cyclopropylethyl)-(3H-imidazol-4-ylmethyl)-amine] | 0.004
CC(C)N(Cc1cnc[nH]1)c1cccc(Cc2ccccc2)c1 [Example 141, (3-Benzyl-phenyl)-(3H-imidazol-4-ylmethyl)-isopropyl-amine] | 0.0015
CC(C)N(Cc1cnc[nH]1)c1cccc(OC(F)(F)F)c1 [Example 115, (3H-Imidazol-4-ylmethyl)-isopropyl-(3-trifluoromethoxy-phenyl)-amine] | 0.009
CC(C)Oc1cccc(N(Cc2cnc[nH]2)C(C)C)c1 [Example 110, (3H-Imidazol-4-ylmethyl)-(3-isopropoxy-phenyl)-isopropyl-amine] | 0.0067

Continued by falling Ki, values first:

Ki [µM] | SMILES
0.0052 | CC(C)N(Cc1cnc[nH]1)c1cc(Cl)ccc1F [Example 78, (5-Chloro-2-fluoro-phenyl)-(3H-imidazol-4-ylmethyl)-isopropyl-amine]
0.005 | CC(C)N(Cc1cnc[nH]1)c1cccc(Oc2cccc(Cl)c2)c1 [Example 206, [3-(3-Chloro-phenoxy)-phenyl]-(3H-imidazol-4-ylmethyl)-isopropyl-amine]
0.0045 | CN(Cc1cnc[nH]1)c1ccc(Cl)cc1 [Example 10, (4-Chloro-phenyl)-(3H-imidazol-4-ylmethyl)-methyl-amine]
0.0044 | CC(C)N(Cc1cnc[nH]1)c1cccc(OC(F)(F)C(F)F)c1 [Example 125, (3H-Imidazol-4-ylmethyl)-isopropyl-[3-(1,1,2,2-tetrafluoro-ethoxy)-phenyl]-amine]
0.0041 | Cc1cc(N(Cc2cnc[nH]2)C(C)C)ccc1F [Example 109, (4-Fluoro-3-methyl-phenyl)-(3H-imidazol-4-ylmethyl)-isopropyl-amine]
0.004 | CC(C)N(Cc1cnc[nH]1)c1ccc(Br)cc1 [Example 296, (4-Bromo-phenyl)-(1H-imidazol-4-ylmethyl)-isopropyl-amine]
0.004 | CC(C)N(Cc1cnc[nH]1)c1cccc(Br)n1 [Example 244, (6-Bromo-pyridin-2-yl)-(3H-imidazol-4-ylmethyl)-isopropyl-amine]
0.004 | Brc1ccc(NCc2cnc[nH]2)cc1Br [Example 279, (3,4-Dibromo-phenyl)-(1H-imidazol-4-ylmethyl)-amine]
0.0039 | CCN(Cc1cnc[nH]1)c1ccc(C)c(C)c1 [Example 130, (3,4-Dimethyl-phenyl)-ethyl-(1H-imidazol-4-ylmethyl)-amine]
0.0039 | CCN(Cc1cnc[nH]1)c1ccc(Oc2ccc(Cl)cc2)c(Cl)c1 [Example 139, [3-Chloro-4-(4-chloro-phenoxy)-phenyl]-ethyl-(1H-imidazol-4-ylmethyl)-amine]
0.0036 | CCN(Cc1cnc[nH]1)c1cccc(Cl)c1F [Example 81, (3-Chloro-2-fluoro-phenyl)-ethyl-(3H-imidazol-4-ylmethyl)-amine]
0.003 | CCN(Cc1cnc[nH]1)c1ccc(Br)cc1 [Example 302, (4-Bromo-phenyl)-ethyl-(1H-imidazol-4-ylmethyl)-amine]
0.0028 | Clc1cccc(Oc2cccc(NCc3cnc[nH]3)c2)c1 [Example 200, [3-(3-Chloro-phenoxy)-phenyl]-(3H-imidazol-4-ylmethyl)-amine]
0.0024 | CCN(Cc1cnc[nH]1)c1cccc(Oc2ccccc2)c1 [Example 188, Ethyl-(3H-imidazol-4-ylmethyl)-(3-phenoxy-phenyl)-amine]
0.0023 | Cc1ccc(N(Cc2cnc[nH]2)C(C)C)cc1Cl [Example 128, (3-Chloro-4-methyl-phenyl)-(1H-imidazol-4-ylmethyl)-isopropyl-amine]
0.002 | CC(C)c1cccc(NCc2cnc[nH]2)c1 [Example 228, (3H-Imidazol-4-ylmethyl)-(3-isopropyl-phenyl)-amine]
0.002 | CN(Cc1cnc[nH]1)c1ccc(Cl)c(Cl)c1 [Example 288, (3,4-Dichloro-phenyl)-(1H-imidazol-4-ylmethyl)-methyl-amine]
0.002 | CC(C)N(Cc1cnc[nH]1)c1cccc(COc2ccccc2)c1 [Example 207, (3H-Imidazol-4-ylmethyl)-isopropyl-(3-phenoxymethyl-phenyl)-amine]
0.0015 | CC(C)N(Cc1cnc[nH]1)c1ccc(F)c(Cl)c1 [Example 53, (3-Chloro-4-fluoro-phenyl)-(3H-imidazol-4-ylmethyl)-isopropyl-amine]
0.0014 | CCN(Cc1cnc[nH]1)c1ccc(F)c(F)c1 [Example 58, (3,4-Difluoro-phenyl)-ethyl-(3H-imidazol-4-ylmethyl)-amine]
0.001 | CCN(Cc1cnc[nH]1)c1cc(F)cc(Cl)c1 [Example 308, (3-Chloro-5-fluoro-phenyl)-ethyl-(1H-imidazol-4-ylmethyl)-amine]
0.001 | CC(C)N(Cc1cnc[nH]1)c1cccc(Br)c1 [Example 242, (3-Bromo-phenyl)-(3H-imidazol-4-ylmethyl)-isopropyl-amine]
0.001 | Brc1cccc(NCc2cnc[nH]2)c1 [Example 225, (3-Bromo-phenyl)-(3H-imidazol-4-ylmethyl)-amine]
